Assay results taken from ChEMBL document CHEMBL5038645, “Discovery of Mycobacterium tuberculosis Rv3364c-Derived Small Molecules as Potential Therapeutic Agents to Target SNX9 for Sepsis” (J Med Chem, 2022).
Values after ≈ are worked out from the molar mass of the structure shown.

Key:
Type in all cases: functional
[1] = Antiinflammatory activity in […] cells assessed as reduction in LPS-induced NOX release at 10 uM pre incubated for 1 hr followed by LPS stimulation and measured after 30 mins by ELISA
[2] = Antiinflammatory activity in […] cells assessed as reduction in LPS-induced TNF-alpha release at 10 uM pre incubated for 1 hr followed by LPS stimulation and measured after 30 mins by ELISA
[3] = Antiinflammatory activity in […] cells assessed as reduction in LPS-induced IL-6 release at 10 uM pre incubated for 1 hr followed by LPS stimulation and measured after 30 mins by ELISA
[4] = tested on: Staphylococcus aureus; assay: Antibacterial activity against Staphylococcus aureus ATCC 6538 assessed as bacterial clearance incubated for 6 to 24 hrs by microbroth dilution method; details: time 6-24 hrs
[5] = tested on: Escherichia coli; assay: Antibacterial activity against Escherichia coli ATCC 12701 assessed as bacterial clearance incubated for 6 to 24 hrs by microbroth dilution method; details: time 6-24 hrs
[6] = tested on: Pseudomonas aeruginosa; assay: Antibacterial activity against Pseudomonas aeruginosa ATCC 10145 assessed as bacterial clearance incubated for 6 to 24 hrs by microbroth dilution method; details: time 6-24 hrs

| SMILES | inhibition at 10 µM [1] [%] | inhibition at 10 µM [2] [%] | inhibition at 10 µM [3] [%] | MIC80 [4] [µg/mL] | MIC80 [5] [µg/mL] | MIC80 [6] [µg/mL] |
| --- | --- | --- | --- | --- | --- | --- |
| NCCOCCOCCNc1nc(NCC2CCCO2)nc(-c2ccccc2)n1 (configuration not stated) | 30.7 | 10.6 | 26.7 |  |  |  |
| CC(C)(C)c1ccc(-c2nc(NCCOCCOCCN)nc(NCc3ccc(Cl)cc3)n2)cc1 | 38.4 | 15.2 | 50 |  |  |  |
| CC(C)(C)c1ccc(-c2nc(NCCOCCOCCN)nc(NCc3cccc(F)c3)n2)cc1 | 38.5 | 35.6 | 46.7 |  |  |  |
| Cc1onc(-c2ccccc2)c1C(=O)N[C@@H]1C(=O)N2[C@@H]1SC(C)(C)[C@@H]2C(=O)O [OXACILLIN] |  |  |  | 0.06 (≈ 0.149 µM) | 0.25 (≈ 0.623 µM) | 1.98 (≈ 4.93 µM) |
| CC1(C)S[C@@H]2[C@H](NC(=O)[C@H](N)c3ccccc3)C(=O)N2[C@H]1C(=O)O [AMPICILLIN] |  |  |  | 0.25 (≈ 0.715 µM) | 1.98 (≈ 5.67 µM) | 0.99 (≈ 2.83 µM) |
| CC(C)(C)c1ccc(-c2nc(NCCOCCOCCN)nc(NCC3CCCCC3)n2)cc1 | 21.5 | 36.4 | 24.7 |  |  |  |
| CC(C)(C)c1ccc(-c2nc(NCCOCCOCCN)nc(NCc3ccc(F)cc3)n2)cc1 | 46.1 | 30.1 | 53.3 |  |  |  |
| Cc1cccc(CNc2nc(NCCOCCOCCN)nc(-c3ccc(C(C)(C)C)cc3)n2)c1 | 41.6 | 25.3 | 56.7 |  |  |  |
| NCCOCCOCCNc1nc(NCC2CCCO2)nc(-c2ccc(F)cc2)n1 (configuration not stated) | 23 | 15.1 | 33.4 |  |  |  |
| Cc1ccc(CNc2nc(NCCOCCOCCN)nc(-c3ccc(C(C)(C)C)cc3)n2)cc1 | 15.3 | 35.9 | 33.3 |  |  |  |
| CC(C)(C)c1ccc(-c2nc(NCCOCCOCCN)nc(NCc3ccco3)n2)cc1 | 44.7 | 15.6 | 40.1 |  |  |  |
| CC(C)(C)c1ccc(-c2nc(NCCOCCOCCN)nc(NCC3CCCCO3)n2)cc1 (configuration not stated) | 46.1 | 10.4 | 56.7 |  |  |  |
| NCCOCCOCCNc1nc(NCC2CCCO2)nc(-c2ccc(C(F)(F)F)cc2)n1 (configuration not stated) | 46.1 | 10.1 | 23.4 |  |  |  |
| NCCOCCOCCNc1nc(NCC2CCCO2)nc(-c2ccc(Cl)cc2)n1 (configuration not stated) | 30.7 | 25.3 | 33.3 |  |  |  |
